Tests used:
[1] = test system: cytokine (IL-1 and IFN-γ) insufflated rats; assay: IL-1 and IFN-γ insufflation inflammatory acute lung injury (ARDS) in rats; format: in vivo
Method: Insufflating IL-1 and interferon-γ (IFN-γ) produced an inflammatory acute lung injury (ARDS) in rats 24 hours later (9). Cytokine insufflated rats had increased lung lavage LDH concentrations (FIG. 2A) and neutrophil numbers (FIG. 2B) compared to saline insufflated control rats. […] Lavage LDH levels paralleled other measures of lung injury including increased epithelial-derived cytokeratin 18 and endothelial-derived angiotensin converting enzyme (ACE) levels and morphologic evidence of inflammation and injury.
Remarkably, protection occurred with ERGO administered post-insult even after some neutrophils had invaded the lung.
[…] Each value is the mean +/−SEM of 3 to 6 determinations.

IL-1 insufflated rats = assay: IL-1 insufflation inflammatory acute lung injury (ARDS) in rats; format: in vivo; details: NAC 150 mg/kg intravenously either just before or 2½ hours after IL-1 insufflation; 5 hours; compared to untreated IL-1 insufflated rats
Method: Insufflating IL-1 produced an inflammatory acute lung injury (ARDS, FIG. 1A) in rats 5 hours later, which was associated with increases in lung lavage neutrophils (FIG. 1B), expired H2O2 levels (FIG. 1C) and lung GSSG levels (FIG. 1D). In contrast, rats administered NAC (150 mg/kg intravenously) either just before or 2½ hours after IL-1 insufflation had decreased lung leak index, lung lavage neutrophil numbers, expired H2O2 levels and lung GSSG levels compared to untreated rats insufflated with IL-1.

[2] = single intravenous bolus 15 mg/kg, 1 hour before cytokine insufflation, compared to untreated cytokine insufflated rats
[3] = single intravenous bolus 150 mg/kg, 18 hours after cytokine insufflation, compared to untreated cytokine insufflated rats
[4] = single intravenous injection 150 mg/kg, 1 hour before IL-1 and IFN-γ insufflation, 24 hours

SMILES | lung injury [1, 2] | lung neutrophils [1, 2] | lung neutrophil numbers [1, 3] | markers of alveolar capillary membrane injury [1, 3] | lung inflammation ([1]; single intravenous bolus 150 mg/kg, 18 hours after cytokine insufflation, data not shown) | lung lavage LDH concentrations [1, 4] | lung lavage neutrophil concentrations [1, 4] | lung lavage total leukocyte concentrations [1, 4] | expired H2O2 levels (IL-1 insufflated rats) | lung GSSG levels (IL-1 insufflated rats) | lung lavage neutrophil numbers (IL-1 insufflated rats) | lung leak index (IL-1 insufflated rats)
C[N+](C)(C)[C@@H](Cc1c[nH]c(=S)[nH]1)C(=O)[O-] [ERGO, ergothioneine] | less | less | reduction in the severity | reduction in the severity | reduction in the severity | decreased | decreased | decreased |  |  |  | 
CC(=O)N[C@@H](CS)C(=O)O [NAC, N-acetylcysteine] |  |  |  |  |  |  |  |  | decreased | decreased | decreased | decreased

From patent US9383348B2, “Compositions and methods for treating lung disorders” (priority 2008, dated 2016)
